Experimental data taken from patent US20250326767A1, “NOVEL BENZOTHIAZOLE DERIVATIVES” (CARNA BIOSCIENCES, INC., priority 2021, published 2025).

Legend:
Test in all cases: Inhibition test on activity of DYRK family, mobility shift assay (MSA)
Format in all cases: biochemical
DYRK1A = biological target: T1, DYRK1A (Homo sapiens, UniProt Q13627); conditions: ATP 100 μM; FITC-labeled DYRKtide peptide substrate; room temperature 1 hour; read-out: Inhibitory Activity DYRK1A (IC50 class)
T1 construct: purchased Carna Biosciences, Inc. 04-130
Experimental: (§1) The kinase activity was measured by mobility shift assay (MSA) method using QuickScout Screening Assist™ MSA (commercially available kit manufactured by Carna Biosciences, Inc.). The substrate of the kinase reaction used was an FITC-labeled DYRKtide peptide included in the kit. An assay buffer [20 mM HEPES, 0.01% Triton X-100™, 2 mM dithiothreitol, pH 7.5] was used to create a substrate mixture solution with a substrate (4 μM), MgCl2 (20 mM), and ATP (DYRK1A: 100 μM; DYRKIB: 200 μM; DYRK2:40 μM; and DYRK3:20 μM). In addition, kinases (DYRK1A: manufactured by Carna Biosciences, Inc., Cat. No. 04-130; DYRK1B: manufactured by Carna Biosciences, Inc., Cat. No. 04-131; DYRK2; manufactured by Carna Biosciences, Inc., Cat. No. 04-132; and DYRK3; manufactured by Carna Biosciences, Inc., Cat. No. 04-133) were diluted with the assay buffer to prepare enzyme solutions (DYRK1A: 0.2 ng/μL; DYRK1B: 0.08 ng/μL; DYRK2: 0.04 ng/μL; and DYRK3:0.25 ng/μL). The 10 mM solution of the test compound in DMSO was further diluted with DMSO to 10 levels of the concentration (0.00003 mM, 0.0001 mM, 0.0003 mM, 0.001 mM, 0.003 mM, 0.01 mM, 0.03 mM, 0.1 mM, 0.3 mM, and 1 mM), each of which was subjected to 25-fold dilution with the assay buffer to obtain a drug solution (4% DMSO solution). 5 μL of the drug solution or a control solution (4% DMSO-assay buffer), 5 μL of the substrate mixture solution, and 10 μL of the enzyme solution were mixed in the wells of a polypropylene 384-well plate and allowed to react at room temperature for 1 hour, and then the reaction was quenched by adding 60 μL of the termination buffer included in the kit. Subsequently, the quantities of the substrates(S) and the phosphorylated substrate (P) in the reaction solution were measured using LabChip EZ Reader II system (manufactured by Caliper Life Sciences) according to the protocol of the assay kit.
(§2) The heights of the peaks of the “substrate” and the “phosphorylated substrate” were expressed as S and P, respectively, and a blank containing the assay buffer instead of the enzyme solution was also measured.
(§3) The inhibition rate (%) of the test compound was calculated according to the following equation: […]
(§4) wherein, A, B, and C represent P/(P+S) of the blank well, P/(P+S) of the control solution well, and P/(P+S) of the compound-containing well, respectively.
(§5) The IC50 value was calculated via a regression analysis of the inhibition rate and the test compound concentration (logarithmic value).

DYRK3 = biological target: T2, DYRK3 (Homo sapiens, UniProt O43781); conditions: ATP 20 μM; FITC-labeled DYRKtide peptide substrate; room temperature 1 hour; read-out: Inhibitory Activity DYRK3 (IC50 class)
T2 construct: purchased Carna Biosciences, Inc. 04-133
T2 sequence (O43781 1-588): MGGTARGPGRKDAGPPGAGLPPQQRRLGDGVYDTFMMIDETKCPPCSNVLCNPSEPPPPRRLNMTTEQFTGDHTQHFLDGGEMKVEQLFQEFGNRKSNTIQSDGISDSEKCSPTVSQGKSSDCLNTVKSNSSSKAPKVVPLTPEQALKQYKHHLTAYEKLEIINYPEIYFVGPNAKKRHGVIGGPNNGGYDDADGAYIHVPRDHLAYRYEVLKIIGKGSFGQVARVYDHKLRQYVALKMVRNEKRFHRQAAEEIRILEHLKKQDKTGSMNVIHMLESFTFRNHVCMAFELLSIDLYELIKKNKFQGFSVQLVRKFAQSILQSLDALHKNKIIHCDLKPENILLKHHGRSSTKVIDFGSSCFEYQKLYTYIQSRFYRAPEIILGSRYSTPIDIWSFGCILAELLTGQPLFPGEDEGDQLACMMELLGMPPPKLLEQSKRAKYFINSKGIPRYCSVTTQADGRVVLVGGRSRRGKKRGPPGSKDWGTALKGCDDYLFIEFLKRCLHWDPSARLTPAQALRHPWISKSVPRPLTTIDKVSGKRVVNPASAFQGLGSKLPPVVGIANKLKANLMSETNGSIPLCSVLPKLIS
Experimental: as §1, §2, §3, §4, §5

DYRK2 = biological target: T3, DYRK2 (Homo sapiens, UniProt Q92630); conditions: ATP 40 μM; FITC-labeled DYRKtide peptide substrate; room temperature 1 hour; read-out: Inhibitory Activity DYRK2 (IC50 class)
T3 construct: purchased Carna Biosciences, Inc. 04-132
T3 sequence (Q92630 1-601): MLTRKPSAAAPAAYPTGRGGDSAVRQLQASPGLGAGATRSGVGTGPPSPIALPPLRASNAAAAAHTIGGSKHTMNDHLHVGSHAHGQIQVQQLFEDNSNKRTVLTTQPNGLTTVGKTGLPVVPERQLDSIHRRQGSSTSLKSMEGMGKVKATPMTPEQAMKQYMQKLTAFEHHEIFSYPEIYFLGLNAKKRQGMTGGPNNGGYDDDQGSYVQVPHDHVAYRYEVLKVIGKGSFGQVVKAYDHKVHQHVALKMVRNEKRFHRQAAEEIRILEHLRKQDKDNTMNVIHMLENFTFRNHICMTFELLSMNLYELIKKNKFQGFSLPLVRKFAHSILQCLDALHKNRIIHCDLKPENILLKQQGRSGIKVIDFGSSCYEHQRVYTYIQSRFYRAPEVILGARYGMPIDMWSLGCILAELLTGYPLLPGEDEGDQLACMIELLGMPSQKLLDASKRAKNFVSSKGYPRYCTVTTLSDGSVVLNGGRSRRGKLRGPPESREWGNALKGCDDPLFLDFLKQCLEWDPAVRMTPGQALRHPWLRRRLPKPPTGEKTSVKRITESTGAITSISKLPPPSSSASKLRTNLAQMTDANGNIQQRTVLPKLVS
Experimental: as §1, §2, §3, §4, §5

DYRK1B = biological target: T4, DYRK1B (Homo sapiens, UniProt Q9Y463); conditions: ATP 200 μM; FITC-labeled DYRKtide peptide substrate; room temperature 1 hour; read-out: Inhibitory Activity DYRK1B (IC50 class)
T4 construct: purchased Carna Biosciences, Inc. 04-131
T4 sequence (Q9Y463 whole entry): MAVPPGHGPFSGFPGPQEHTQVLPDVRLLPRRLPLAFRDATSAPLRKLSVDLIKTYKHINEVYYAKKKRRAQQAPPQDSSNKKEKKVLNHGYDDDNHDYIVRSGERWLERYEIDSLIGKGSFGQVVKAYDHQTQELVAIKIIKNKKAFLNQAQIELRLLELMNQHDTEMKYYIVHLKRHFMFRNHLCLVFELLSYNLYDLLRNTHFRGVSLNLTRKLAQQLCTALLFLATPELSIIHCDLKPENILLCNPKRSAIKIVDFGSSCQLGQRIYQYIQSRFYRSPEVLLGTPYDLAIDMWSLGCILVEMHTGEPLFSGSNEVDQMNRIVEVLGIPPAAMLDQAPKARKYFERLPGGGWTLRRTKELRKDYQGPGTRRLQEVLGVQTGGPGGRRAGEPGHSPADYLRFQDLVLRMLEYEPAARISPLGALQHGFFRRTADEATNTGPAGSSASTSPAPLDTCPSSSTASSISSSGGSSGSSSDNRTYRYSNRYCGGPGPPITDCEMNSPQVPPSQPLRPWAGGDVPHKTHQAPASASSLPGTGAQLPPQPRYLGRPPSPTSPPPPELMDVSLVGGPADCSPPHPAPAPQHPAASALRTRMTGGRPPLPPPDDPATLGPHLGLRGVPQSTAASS
Experimental: as §1, §2, §3, §4, §5

Row | IC50 (DYRK1A) [nM] | IC50 (DYRK3) [nM] | IC50 (DYRK2) [nM] | IC50 (DYRK1B) [nM] | SMILES
1 | < 10 | > 1000 | > 1000 |  | CC#CC1CCNC(=O)N1c1nc2c3c(ccc2s1)OCCO3 (racemic) [Example 1, (RS)-1-(7,8-dihydro-[1,4]dioxino[2′,3′:5,6]benzo[1,2-d]thiazol-2-yl)-6-(prop-1-yn-1-yl)tetrahydropyrimidin-2(1H)-one]
2 | < 10 | 100 to 1000 | 100 to 1000 |  | CC#CC1N(c2nc3c4c(ccc3s2)OCC4)C(=O)NC12CC2 (racemic) [Example 2, (RS)-6-(7,8-dihydrobenzofuro[4,5-d]thiazol-2-yl)-7-(prop-1-yn-1-yl)-4,6-diazaspiro[2.4]heptan-5-one]
3 | < 10 | 100 to 1000 | 100 to 1000 |  | CC#CC1CCNC(=O)N1c1nc2c3c(ccc2s1)OCC3 (racemic) [Example 3, (RS)-3-(7,8-dihydrobenzofuro[4,5-d]thiazol-2-yl)-4-(prop-1-yn-1-yl)-tetrahydropyrimidin-2(1H)-one]
4 |  | 100 to 1000 | 100 to 1000 |  | CC#CC1N(c2nc3c4c(ccc3s2)OCCO4)C(=O)NC12CC2 (racemic) [Example 4, (RS)-6-(7,8-dihydro-[1,4]dioxyno[2′,3′:5,6]benzo[1,2-d]thiazol-2-yl)-7-(prop-1-yn-1-yl)-4,6-diazaspiro[2.4]heptan-5-one]
5 | 10 to 100 | 100 to 1000 | > 1000 |  | CC#CC1N(c2nc3c4c(ccc3s2)OCC4)C(=O)NC12COC2 (racemic) [Example 9, (RS)-7-(7,8-dihydro-benzofuro[4,5-d]thiazol-2-yl)-8-(prop-1-yn-1-yl)-2-oxa-5,7-diazaspiro[3.4]octan-6-one]
6 | 100 to 1000 | > 1000 | > 1000 |  | CC#CC1CCNC(=O)N1c1nc2c3c(ccc2s1)OCCO3 (single isomer, unassigned) [Example 6, 1-(7,8-dihydro-[1,4]dioxyno[2′,3′:5,6]benzo[1,2-d]thiazol-2-yl)-6-(prop-1-yn-1-yl)tetrahydropyrimidin-2(1H)-one]
7 |  | 100 to 1000 | 100 to 1000 | < 10 | CC#CC1N(c2nc3c4c(ccc3s2)OCCO4)C(=O)NC12CC2 (single isomer, unassigned) [Example 7, 6-(7,8-dihydro-[1,4]dioxyno[2′,3′:5,6]benzo[1,2-d]thiazol-2-yl)-7-(prop-1-yn-1-yl)-4,6-diazaspiro[2.4]heptan-5-one]
8 |  | > 1000 | > 1000 |  | CC#CC1N(c2nc3c4c(ccc3s2)OCCO4)C(=O)NC12CC2 (single isomer, unassigned) [Example 8, 6-(7,8-dihydro-[1,4]dioxyno[2′,3′:5,6]benzo[1,2-d]thiazol-2-yl)-7-(prop-1-yn-1-yl)-4,6-diazaspiro[2.4]heptan-5-one]
9 | < 10 | 10 to 100 | 100 to 1000 |  | CC#CC1N(c2nc3c4c(ccc3s2)OCC4)C(=O)NC12CC2 (single isomer, unassigned) [Example 18, 6-(7,8-dihydrobenzofuro[4,5-d]thiazol-2-yl)-7-(prop-1-yn-1-yl)-4,6-diazaspiro[2.4]heptan-5-one]
10 | > 1000 | > 1000 | > 1000 |  | CC#CC1N(c2nc3c4c(ccc3s2)OCC4)C(=O)NC12CC2 (single isomer, unassigned) [Example 19, 6-(7,8-dihydrobenzofuro[4,5-d]thiazol-2-yl)-7-(prop-1-yn-1-yl)-4,6-diazaspiro[2.4]heptan-5-one]
11 | < 10 | 100 to 1000 | > 1000 |  | CC#CC1N(c2nc3c4c(ccc3s2)OCC4)C(=O)NC12CCC2 (single isomer, unassigned) [Example 20, 7-(7,8-dihydrobenzofuro[4,5-d]thiazol-2-yl)-8-(prop-1-yn-1-yl)-5,7-diazaspiro[3.4]octan-6-one]
12 | 100 to 1000 | > 1000 | > 1000 |  | CC#CC1N(c2nc3c4c(ccc3s2)OCC4)C(=O)NC12CCC2 (single isomer, unassigned) [Example 21, 7-(7,8-dihydrobenzofuro[4,5-d]thiazol-2-yl)-8-(prop-1-yn-1-yl)-5,7-diazaspiro[3.4]octan-6-one]
13 |  | 100 to 1000 | > 1000 |  | CC#CC1N(c2nc3c4c(ccc3s2)OCC4)C(=O)NC12CCCC2 (single isomer, unassigned) [Example 22, 3-(7,8-dihydrobenzofuro[4,5-d]thiazol-2-yl)-4-(prop-1-yn-1-yl)-1,3-diazaspiro[4.4]nonan-2-one]
14 |  | > 1000 | > 1000 |  | CC#CC1N(c2nc3c4c(ccc3s2)OCC4)C(=O)NC12CCCC2 (single isomer, unassigned) [Example 23, 3-(7,8-dihydrobenzofuro[4,5-d]thiazol-2-yl)-4-(prop-1-yn-1-yl)-1,3-diazaspiro[4.4]nonan-2-one]
15 |  | > 1000 | > 1000 |  | CC#C[C@@H]1[C@H](C)CNC(=O)N1c1nc2c3c(ccc2s1)OCC3 (stereo in doubt) [Example 10, (5R*,6S*)-1-(7,8-dihydrobenzofuro[4,5-d]thiazol-2-yl)-5-methyl-6-(prop-1-yn-1-yl)tetrahydropyrimidin-2(1H)-one]
16 |  | > 1000 | > 1000 |  | CC#C[C@@H]1[C@@H](C)CNC(=O)N1c1nc2c3c(ccc2s1)OCC3 (stereo in doubt) [Example 11, (5S*, 6S*)-1-(7,8-dihydrobenzofuro[4,5-d]thiazol-2-yl)-5-methyl-6-(prop-1-yn-1-yl)tetrahydropyrimidin-2(1H)-one]
17 |  | > 1000 | > 1000 | 100 to 1000 | CC#C[C@H]1[C@@H](C)CNC(=O)N1c1nc2c3c(ccc2s1)OCC3 (stereo in doubt) [Example 12, (5S*,6R*)-1-(7,8-dihydrobenzofuro[4,5-d]thiazol-2-yl)-5-methyl-6-(prop-1-yn-1-yl)tetrahydropyrimidin-2(1H)-one]
